Data reported in patent US20230382925A1, “MODULATORS OF CYSTIC FIBROSIS TRANSMEMBRANE CONDUCTANCE REGULATOR” (VERTEX PHARMACEUTICALS INCORPORATED, priority 2020, published 2023).

Assays:
CFTR [1] = biological target: T1, CFTR (Homo sapiens, UniProt P13569); assay: Membrane Potential Dye, Enteroid Assay B; assay type: cell-based; conditions: for EC50: read-out: Ent. B EC50
How it was run: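 Activity given as % of a triple-combination reference (1 μM and 3 μM correctors, 300 nM acute potentiator). Enteroids were preincubated 18-24 h with compound; chloride efflux then measured 15 min by methyl oxonol fluorescence after forskolin/IBMX/Compound III stimulation in chloride-free buffer containing CaCCinh-A01 and Chicago Sky Blue.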

CFTR [2] = biological target: T1, CFTR; assay: Membrane Potential Dye, Enteroid Assay A; assay type: cell-based; conditions: for EC50: read-out: Ent. A EC50
How it was run: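 Primary human intestinal enteroid cells exposed to compound for 18–24 hours at 37 °C, then loaded 25 min with methyl oxonol membrane potential dye plus CaCC inhibitors. Chloride transport triggered in chloride-free buffer with 10 μM forskolin, 100 μM IBMX and 300 nM Compound III, fluorescence read 15 min; % Activity relative to a triple-combination corrector/potentiator control.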

T1 sequence (P13569 with tags, fused parts or gaps DEL508-508): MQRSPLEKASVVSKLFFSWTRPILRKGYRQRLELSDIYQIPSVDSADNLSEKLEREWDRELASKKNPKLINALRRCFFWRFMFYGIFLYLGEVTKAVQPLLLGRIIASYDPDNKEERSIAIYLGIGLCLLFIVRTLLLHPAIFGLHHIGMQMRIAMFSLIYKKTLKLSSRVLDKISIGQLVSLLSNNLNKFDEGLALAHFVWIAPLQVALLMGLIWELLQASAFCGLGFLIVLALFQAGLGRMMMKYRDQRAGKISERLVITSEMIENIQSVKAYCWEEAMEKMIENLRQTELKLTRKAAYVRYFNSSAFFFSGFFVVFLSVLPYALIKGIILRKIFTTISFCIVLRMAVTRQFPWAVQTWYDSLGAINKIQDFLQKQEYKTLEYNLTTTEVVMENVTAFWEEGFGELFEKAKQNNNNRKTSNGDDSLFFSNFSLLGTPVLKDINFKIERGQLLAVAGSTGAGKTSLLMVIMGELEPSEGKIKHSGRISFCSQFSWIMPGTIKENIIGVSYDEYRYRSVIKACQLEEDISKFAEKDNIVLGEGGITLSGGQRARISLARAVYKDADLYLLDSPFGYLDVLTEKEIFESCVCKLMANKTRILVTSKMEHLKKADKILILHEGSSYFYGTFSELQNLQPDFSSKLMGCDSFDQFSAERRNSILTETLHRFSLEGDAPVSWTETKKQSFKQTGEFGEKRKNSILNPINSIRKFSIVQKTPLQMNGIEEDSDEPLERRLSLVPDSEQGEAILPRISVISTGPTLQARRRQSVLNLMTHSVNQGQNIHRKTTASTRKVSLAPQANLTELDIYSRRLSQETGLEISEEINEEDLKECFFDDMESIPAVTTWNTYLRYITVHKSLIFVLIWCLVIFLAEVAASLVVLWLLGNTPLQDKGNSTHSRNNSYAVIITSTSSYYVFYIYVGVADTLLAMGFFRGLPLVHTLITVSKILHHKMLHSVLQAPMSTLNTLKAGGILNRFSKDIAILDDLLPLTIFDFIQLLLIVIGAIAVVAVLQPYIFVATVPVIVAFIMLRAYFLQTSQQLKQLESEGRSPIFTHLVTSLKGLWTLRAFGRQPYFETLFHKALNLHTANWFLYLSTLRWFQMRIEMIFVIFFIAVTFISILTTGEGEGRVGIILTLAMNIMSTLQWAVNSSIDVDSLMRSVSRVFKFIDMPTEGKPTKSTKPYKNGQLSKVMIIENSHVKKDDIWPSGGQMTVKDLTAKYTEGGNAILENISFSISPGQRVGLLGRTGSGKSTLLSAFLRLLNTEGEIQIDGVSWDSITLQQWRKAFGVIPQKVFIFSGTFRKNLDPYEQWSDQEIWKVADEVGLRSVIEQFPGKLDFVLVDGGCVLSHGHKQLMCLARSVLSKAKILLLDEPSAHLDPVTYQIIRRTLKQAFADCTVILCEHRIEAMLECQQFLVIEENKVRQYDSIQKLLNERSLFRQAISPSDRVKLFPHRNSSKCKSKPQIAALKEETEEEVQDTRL

| Structure (SMILES) | Ent. B Max Activity (%) (CFTR [1]) | EC50 (CFTR [1]) | Ent. A Max Activity (%) (CFTR [2]) | EC50 (CFTR [2]) |
| --- | --- | --- | --- | --- |
| Cc1cccc(C)c1-c1cc2nc(n1)NS(=O)(=O)c1cccc(c1)C(=O)N(C1CC3(CCN(C(=O)OC(C)C)CC3)C1)[C@H](CC(C)C)CO2 [Compound 21, Isopropyl 2-[(11R)-6-(2,6-dimethylphenyl)-11-isobutyl-2,2,13-trioxo-9-oxa-2λ^6-thia-3,5,12,19-tetrazatricyclo[12.3.1.14,8]nonadeca-1(18),4(19),5,7,14,16-hexaen-12-yl]-7-azaspiro[3.5]nonane-7-carboxylate] | +++ (+++ is >60%) | < 1000 nM | +++ (+++ is >60%) | < 1000 nM |
| Cc1cccc(C)c1-c1cc2nc(n1)NS(=O)(=O)c1cccc(c1)C(=O)N(C1CN(C(=O)OCc3ccccc3)C1)[C@H](CC(C)C)CO2 [Compound 100, Benzyl 3-[(11R)-6-(2,6-dimethylphenyl)-11-isobutyl-2,2,13-trioxo-9-oxa-2λ^6-thia-3,5,12,19-tetrazatricyclo[12.3.1.14,8]nonadeca-1(18),4(19),5,7,14,16-hexaen-12-yl]azetidine-1-carboxylate] | +++ (+++ is >60%) | < 1000 nM | +++ (+++ is >60%) | < 1000 nM |
| Cc1cccc(C)c1-c1cc2nc(n1)NS(=O)(=O)c1cccc(c1)C(=O)N(C1CN(C(C)C)C1)[C@H](CC(C)C)CO2 [Compound 319] | +++ (+++ is >60%) | < 1000 nM | +++ (+++ is >60%) | < 1000 nM |
| Cc1cccc(C)c1-c1cc2nc(n1)NS(=O)(=O)c1cccc(c1)C(=O)N(C1CC3(CCN(CCF)CC3)C1)[C@H](CC(C)C)CO2 [Compound 321] | +++ (+++ is >60%) | < 1000 nM | +++ (+++ is >60%) | < 1000 nM |
| COC(=O)N1CCCCC12CC(N1C(=O)c3cccc(c3)S(=O)(=O)Nc3nc(cc(-c4c(C)cccc4C)n3)OC[C@H]1CC(C)C)C2 (stereo partly shown) [Compound 323] | +++ (+++ is >60%) | < 1000 nM | +++ (+++ is >60%) | < 1000 nM |
| COC(=O)NC1CC2(C1)CC(N1C(=O)c3cccc(c3)S(=O)(=O)Nc3nc(cc(-c4c(C)cccc4C)n3)OC[C@H]1CC(C)C)C2 (stereo partly shown) [Compound 326] | +++ (+++ is >60%) | < 1000 nM | +++ (+++ is >60%) | < 1000 nM |
| Cc1cccc(C)c1-c1cc2nc(n1)NS(=O)(=O)c1cccc(c1)C(=O)N(C1CN(C(=O)OC(C)(C)C)C1)[C@H](CC(C)C)CO2 [Compound 334] | ++ (++ is 30-60%) | < 1000 nM | +++ (+++ is >60%) | < 1000 nM |
| Cc1cccc(C)c1-c1cc2nc(n1)NS(=O)(=O)c1cccc(c1)C(=O)N([C@H]1CC3(C[C@@H](CO)C3)C1)[C@H](CC(C)C)CO2 (stereo partly shown) [Compound 337] | +++ (+++ is >60%) | < 1000 nM | +++ (+++ is >60%) | < 1000 nM |
| Cc1cccc(C)c1-c1cc2nc(n1)NS(=O)(=O)c1cccc(c1)C(=O)N([C@H]1CC3(C[C@H](C(=O)N(C)C)C3)C1)[C@H](CC(C)C)CO2 (stereo partly shown) [Compound 343] | +++ (+++ is >60%) | < 1000 nM | +++ (+++ is >60%) | < 1000 nM |
| Cc1cccc(C)c1-c1cc2nc(n1)NS(=O)(=O)c1cccc(c1)C(=O)N([C@H]1C[C@@H](NC(=O)OC(C)(C)C)C1)[C@H](CC(C)C)CO2 [Compound 349] | ++ (++ is 30-60%) | < 1000 nM | +++ (+++ is >60%) | < 1000 nM |
| Cc1cccc(C)c1-c1cc2nc(n1)NS(=O)(=O)c1cccc(n1)C(=O)N(C1CC3(CC3)C1)[C@H](CC(C)(C)C)CO2 [Compound 401] | +++ (+++ is >60%) | < 1000 nM | +++ (+++ is >60%) | < 1000 nM |
| Cc1cccc(C)c1-c1cc2nc(n1)NS(=O)(=O)c1cccc(c1)C(=O)N(C1CC3(CC3)C1)[C@@H](CC(C)C)CO2 [Compound 474, (11S)-6-(2,6-Dimethylphenyl)-11-isobutyl-2,2-dioxo-12-spiro[2.3]hexan-5-yl-9-oxa-2λ^6-thia-3,5,12,19-tetrazatricyclo[12.3.1.14,8]nonadeca-1(18),4(19),5,7,14,16-hexaen-13-one] | + (+ is <300%) | < 1000 nM | ++ (++ is 30-60%) | < 1000 nM |

Next, values leading:

| Ent. B Max Activity (%) (CFTR [1]) | EC50 (CFTR [1]) | Ent. A Max Activity (%) (CFTR [2]) | EC50 (CFTR [2]) | Structure (SMILES) |
| --- | --- | --- | --- | --- |
| +++ (+++ is >60%) | < 1000 nM | +++ (+++ is >60%) | < 1000 nM | COC(=O)N1CCC2(CC1)CC(N1C(=O)c3cccc(c3)S(=O)(=O)Nc3nc(cc(-c4c(C)cccc4C)n3)OC[C@H]1CC(C)C)C2 [Compound 19, methyl 2-[(11R)-6-(2,6-dimethylphenyl)-11-isobutyl-2,2,13-trioxo-9-oxa-2λ^6-thia-3,5,12,19-tetrazatricyclo[12.3.1.14,8]nonadeca-1(18),4(19),5,7,14,16-hexaen-12-yl]-7-azaspiro[3.5]nonane-7-carboxylate] |
| +++ (+++ is >60%) | < 1000 nM | +++ (+++ is >60%) | < 1000 nM | Cc1cccc(C)c1-c1cc2nc(n1)NS(=O)(=O)c1cccc(c1)C(=O)N(C1CC3(CCN(CCC(F)(F)F)CC3)C1)[C@H](CC(C)C)CO2 [Compound 20, (11R)-6-(2,6-Dimethylphenyl)-11-isobutyl-2,2-dioxo-12-[7-(3,3,3-trifluoropropyl)-7-azaspiro[3.5]nonan-2-yl]-9-oxa-2λ^6-thia-3,5,12,19-tetrazatricyclo[12.3.1.14,8]nonadeca-1(18),4(19),5,7,14,16-hexaen-13-one] |
| +++ (+++ is >60%) | < 1000 nM | +++ (+++ is >60%) | < 1000 nM | COCCN1CCC2(CC1)CC(N1C(=O)c3cccc(c3)S(=O)(=O)Nc3nc(cc(-c4c(C)cccc4C)n3)OC[C@H]1CC(C)C)C2 [Compound 22, (11R)-6-(2,6-dimethylphenyl)-11-isobutyl-12-[7-(2-methoxyethyl)-7-azaspiro[3.5]nonan-2-yl]-2,2-dioxo-9-oxa-2λ^6-thia-3,5,12,19-tetrazatricyclo[12.3.1.14,8]nonadeca-1(18),4(19),5,7,14,16-hexaen-13-one] |
| +++ (+++ is >60%) | < 1000 nM | +++ (+++ is >60%) | < 1000 nM | Cc1cccc(C)c1-c1cc2nc(n1)NS(=O)(=O)c1cccc(c1)C(=O)N(C1CN(C3CC4(CC4)C3)C1)[C@H](CC(C)C)CO2 [Compound 101, (11R)-6-(2,6-Dimethylphenyl)-11-isobutyl-2,2-dioxo-12-(1-spiro[2.3]hexan-5-ylazetidin-3-yl)-9-oxa-2λ^6-thia-3,5,12,19-tetrazatricyclo[12.3.1.14,8]nonadeca-1(18),4(19),5,7,14,16-hexaen-13-one] |
| +++ (+++ is >60%) | < 1000 nM | +++ (+++ is >60%) | < 1000 nM | Cc1cccc(C)c1-c1cc2nc(n1)NS(=O)(=O)c1cccc(c1)C(=O)N(C1CC3(CCN(C)CC3)C1)CC(CC(C)C)(CC(C)C)CO2 (stereo not shown) [Compound 311] |
| +++ (+++ is >60%) | < 1000 nM | +++ (+++ is >60%) | < 1000 nM | Cc1cccc(C)c1-c1cc2nc(n1)NS(=O)(=O)c1cccc(c1)C(=O)N([C@H]1CC3(C[C@H](N(C)C)C3)C1)[C@H](CC(C)C)CO2 (stereo partly shown) [Compound 313] |
| +++ (+++ is >60%) | < 1000 nM | +++ (+++ is >60%) | < 1000 nM | CCOC(=O)N1CCC2(CC1)CC(N1C(=O)c3cccc(c3)S(=O)(=O)Nc3nc(cc(-c4c(C)cccc4C)n3)OC[C@H]1CC(C)C)C2 [Compound 315] |
